In patent US20090029949A1, “GPCR Ligands Identified by Computational Modeling” (priority 2006, published 2009):

How the values were obtained:
S1P1 mutant V6.40L = target: T1, S1P1 mutant V6.40L (Homo sapiens, UniProt P21453, V261L); assay: [32P]S1P radioligand binding, RH7777 cells, V6.40L; details: radioligand 50 nM, S1P1 V6.40L
T1 construct: expressed in transfected cells; host or cells: RH7777
Description: (§1) RH7777 and HEK-293 cells (ATCC, Manassas, Va.) were maintained in Dulbecco's modified minimal essential medium (DMEM) containing 10% fetal bovine serum (Hyclone, Logan, Utah). Cells (2×10^6) were transfected with 2 μg of plasmid DNA with Effectene (Qiagen, Valencia, Calif.) according to the manufacturer's instructions, for 24 h. Before ligand binding and receptor activation assays, the cells were washed twice with serum-free DMEM and serum-starved for at least 6 h.
(§2) The S1P binding assays were done essentially as previously described (28). Transfected RH7777 cells (5×10^5) were incubated at 4° C. in 20 mM Tris-HCl (pH 7.5) binding buffer containing 100 mM NaCl, 15 mM NaF, protease inhibitor cocktail (Sigma-Aldrich), and 0.2 mg/ml essentially fatty-acid free BSA with 1 nM [^32P]S1P in 50 nM S1P for 40 min. Cells were centrifuged and washed twice in binding buffer. The final pellet was resuspended in 2:1 CHCl3/MeOH and the suspension was equilibrated in scintillation fluid overnight. Cell-bound radioactivity was measured by liquid scintillation counting using a Beckman LS5000 TA counter (Beckman Coulter, Irvine, Calif.). Specific binding was defined as the difference between total binding and non-specific binding (in the presence of 2-5 μM cold S1P). Standard errors were computed on the basis of triplicate samples from two simultaneous transfections.

S1P1 mutant I5.41A = target: T2, S1P1 mutant I5.41A (Homo sapiens, UniProt P21453, I203A); assay: [35S]GTPγS binding, S1P1 I5.41A; format: biochemical; details: S1P-induced, S1P1 I5.41A in RH7777 cells
T2 construct: expressed in transfected cells; host or cells: RH7777 (transient, pcDNA3.1)
T2 sequence (P21453 whole entry I203A): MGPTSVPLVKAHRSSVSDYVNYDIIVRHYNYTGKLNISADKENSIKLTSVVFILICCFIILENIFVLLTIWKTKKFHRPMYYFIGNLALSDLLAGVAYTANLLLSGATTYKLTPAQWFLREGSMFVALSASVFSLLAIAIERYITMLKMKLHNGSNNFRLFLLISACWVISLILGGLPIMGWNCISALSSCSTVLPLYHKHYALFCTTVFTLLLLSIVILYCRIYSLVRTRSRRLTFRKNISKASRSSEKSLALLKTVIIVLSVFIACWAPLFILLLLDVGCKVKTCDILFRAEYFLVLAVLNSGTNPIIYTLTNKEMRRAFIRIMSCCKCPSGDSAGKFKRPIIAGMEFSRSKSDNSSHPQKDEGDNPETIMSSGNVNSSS
Description: as §1
(§3) S1P1 Receptor Activation Assays Receptor functional assays were performed in transiently transfected RH7777 cells by measuring S1P-activated [^35S]GTPγS binding as previously described (28).

S1P1 mutant W6.48A = target: T3, S1P1 mutant W6.48A (Homo sapiens, UniProt P21453, W269A); assay: [32P]S1P radioligand binding, RH7777 cells, W6.48A; details: radioligand 50 nM, S1P1 W6.48A
T3 construct: expressed in transfected cells
T3 sequence (P21453 whole entry W269A): as the sequence (P21453 whole entry I203A) above, with A203I, W269A counted along it
Description: as §1, §2

S1P1 mutant F6.44Y = target: T4, S1P1 mutant F6.44Y (Homo sapiens, UniProt P21453, F265Y); assay: [35S]GTPγS binding, S1P1 F6.44Y; format: biochemical; details: S1P-induced, S1P1 F6.44Y in RH7777 cells
T4 construct: expressed in transfected cells; host or cells: RH7777
T4 sequence (P21453 whole entry F265Y): as the sequence (P21453 whole entry I203A) above, with A203I, F265Y counted along it
Description: as §1, §3

WT S1P1 = WT S1P1 (Homo sapiens, UniProt P21453); assay: Ligand-induced [35S]GTPγS binding, WT S1P1; format: biochemical; parameters: expressed in transfected cells; host or cells: RH7777 (transient, pcDNA3.1); details: S1P-induced, WT-S1P1 in RH7777 cells
WT S1P1, sequence (P21453 whole entry): as the sequence (P21453 whole entry I203A) above, with A203I counted along it
Description: as §1, §3

S1P1 mutant F5.43G = target: T5, S1P1 mutant F5.43G (Homo sapiens, UniProt P21453, F205G); assay: [35S]GTPγS binding, S1P1 F5.43G; format: biochemical; details: S1P-induced, S1P1 F5.43G in RH7777 cells
T5 construct: expressed in transfected cells; host or cells: RH7777 (transient, pcDNA3.1)
T5 sequence (P21453 whole entry F205G): as the sequence (P21453 whole entry I203A) above, with A203I, F205G counted along it
Description: as §1, §3

S1P1 mutant V5.47L = target: T6, S1P1 mutant V5.47L (Homo sapiens, UniProt P21453, V209L); assay: [35S]GTPγS binding, S1P1 V5.47L; format: biochemical; details: S1P-induced, S1P1 V5.47L in RH7777 cells
T6 construct: expressed in transfected cells; host or cells: RH7777
T6 sequence (P21453 whole entry V209L): as the sequence (P21453 whole entry I203A) above, with A203I, V209L counted along it
Description: as §1, §3

[1] = target: T7, S1P1 double mutant L3.43, 3.44G (Homo sapiens, UniProt P21453, L135G/L136G); assay: [35S]GTPγS binding, S1P1 L3.43, 3.44G; format: biochemical; details: S1P-induced, S1P1 L3.43, 3.44G in RH7777 cells
T7 construct: expressed in transfected cells; host or cells: RH7777
T7 sequence (P21453 whole entry L135G/L136G): as the sequence (P21453 whole entry I203A) above, with L135G, L136G, A203I counted along it
Description: as §1, §3

S1P1 mutant L3.36E [2] = target: T8, S1P1 mutant L3.36E (Homo sapiens, UniProt P21453, L128E); assay: [32P]S1P radioligand binding, RH7777 cells, L3.36E; parameters: expressed in transfected cells; host or cells: RH7777 (transient, pcDNA3.1); details: radioligand 50 nM, S1P1 L3.36E
T8 sequence (P21453 whole entry L128E): as the sequence (P21453 whole entry I203A) above, with L128E, A203I counted along it
Description: as §1, §2

S1P1 mutant F5.48Y = target: T9, S1P1 mutant F5.48Y (Homo sapiens, UniProt P21453, F210Y); assay: [35S]GTPγS binding, S1P1 F5.48Y; format: biochemical; details: S1P-induced, S1P1 F5.48Y in RH7777 cells
T9 construct: expressed in transfected cells; host or cells: RH7777
T9 sequence (P21453 whole entry F210Y): as the sequence (P21453 whole entry I203A) above, with A203I, F210Y counted along it
Description: as §1, §3

S1P1 mutant F5.48G = target: T10, S1P1 mutant F5.48G (Homo sapiens, UniProt P21453, F210G); assay: [32P]S1P competition binding, HEK-293 cells, F5.48G; details: S1P1 F5.48G
T10 construct: expressed in transfected cells
T10 sequence (P21453 whole entry F210G): as the sequence (P21453 whole entry I203A) above, with A203I, F210G counted along it
Description: For the competition assays, HEK-293 cells were used. Briefly, 4×10^5 cells were plated in 24-well dishes and allowed to adhere overnight. The cells were then transfected with 0.4 μg of the cDNA using Lipofectamine 2000 (Invitrogen) and the transfection proceeded for 48 h. After washing the cells twice with ice-cold binding buffer (20 mM Tris-HCl, pH 7.4 and 150 mM NaCl), 0.1 nM [^32P]S1P and competing concentrations of cold S1P (1 nM-10 μM), resuspended in binding buffer+4% BSA, were applied to the cells and incubated on ice for 30 min. After washing the cells twice with ice-cold binding buffer+0.4% BSA, the cells were lysed with 0.5% SDS and equilibrated in scintillation fluid. The samples were measured in triplicate.

S1P1 mutant L3.36E [3] = target: T8, S1P1 mutant L3.36E; assay: [35S]GTPγS binding, S1P1 L3.36E; format: biochemical; parameters: expressed in transfected cells; host or cells: RH7777 (transient, pcDNA3.1); details: S1P-induced, S1P1 L3.36E in RH7777 cells
Description: as §1, §3

S1P1 mutant F6.44G = target: T11, S1P1 mutant F6.44G (Homo sapiens, UniProt P21453, F265G); assay: [35S]GTPγS binding, S1P1 F6.44G; format: biochemical; details: S1P-induced, S1P1 F6.44G in RH7777 cells
T11 construct: expressed in transfected cells; host or cells: RH7777
T11 sequence (P21453 whole entry F265G): as the sequence (P21453 whole entry I203A) above, with A203I, F265G counted along it
Description: as §1, §3

S1P1 mutant M3.32G = target: T12, S1P1 mutant M3.32G (Homo sapiens, UniProt P21453, M124G); assay: [35S]GTPγS binding, S1P1 M3.32G; format: biochemical; details: S1P-induced, S1P1 M3.32G in RH7777 cells
T12 construct: expressed in transfected cells; host or cells: RH7777
T12 sequence (P21453 whole entry M124G): as the sequence (P21453 whole entry I203A) above, with M124G, A203I counted along it
Description: as §1, §3

S1P1 mutant V6.37L = target: T13, S1P1 mutant V6.37L (Homo sapiens, UniProt P21453, V258L); assay: [35S]GTPγS binding, S1P1 V6.37L; format: biochemical; details: S1P-induced, S1P1 V6.37L in RH7777 cells
T13 construct: expressed in transfected cells; host or cells: RH7777
T13 sequence (P21453 whole entry V258L): as the sequence (P21453 whole entry I203A) above, with A203I, V258L counted along it
Description: as §1, §3

T1 sequence (P21453 whole entry V261L): as the sequence (P21453 whole entry I203A) above, with A203I, V261L counted along it

CCCCCCCCCCCCC/C=C/[C@@H](O)[C@@H](N)COP(=O)(O)O [S1P, Sphingosine 1-phosphate] was tested, and the “[32P]S1P binding relative to WT” value (S1P1 mutant V6.40L) was > 50 % of the WT, the EC50 (S1P1 mutant I5.41A) was 0.157 µM and the Emax (S1P1 mutant I5.41A; read-out: % WT Emax + s.d.) was 26%. The “[32P]S1P binding relative to WT” value (S1P1 mutant W6.48A) was > 50 % of the WT, the EC50 (S1P1 mutant F6.44Y) was 0.0037 ± 0.0033 µM and the Emax (S1P1 mutant F6.44Y; read-out: % WT Emax + s.d.) was 37%. The “% WT Emax + s.d.” value (WT S1P1) was 100 + 9.13 % WT, the EC50 (WT S1P1) was 0.0014 ± 0.0007 µM and the EC50 (S1P1 mutant F5.43G) was 0.0118 µM. For the same compound, the Emax (S1P1 mutant F5.43G; read-out: % WT Emax + s.d.) was 70%, the “% WT Emax + s.d.” value (S1P1 mutant V5.47L) was “∞” and the “EC50 + s.d.” value (S1P1 mutant V5.47L) was “∞”. The “% WT Emax + s.d.” value [1] was “∞”, the “EC50 + s.d.” value [1] was “∞” and the “[32P]S1P binding relative to WT” value (S1P1 mutant L3.36E [2]) was > 50 % of the WT. The “% WT Emax + s.d.” value (S1P1 mutant F5.48Y) was “∞”, the “EC50 + s.d.” value (S1P1 mutant F5.48Y) was “∞” and the Bmax (S1P1 mutant F5.48G) was 2580 fmol. For the same compound, the Kd (S1P1 mutant F5.48G; competition with cold S1P, read-out: KD + s.d.) was 0.0202 µM, the EC50 (S1P1 mutant L3.36E [3]) was 0.00062 ± 0.00046 µM and the Emax (S1P1 mutant L3.36E [3]; read-out: % WT Emax + s.d.) was 39 ± 2.8%. The “% WT Emax + s.d.” value (S1P1 mutant F6.44G) was “∞”, the “EC50 + s.d.” value (S1P1 mutant F6.44G) was “∞” and the EC50 (S1P1 mutant M3.32G) was 0.035 ± 0.005 µM. It also gave an Emax (S1P1 mutant M3.32G; read-out: % WT Emax + s.d.) of 77%, an EC50 (S1P1 mutant V6.37L) of 0.0376 µM and an Emax (S1P1 mutant V6.37L; read-out: % WT Emax + s.d.) of 247%.
